Source: patent US20020172972A1, “Use of a selectively inactivatable enzyme to digest contaminating nucleic acid” (President and Fellows of Harvard College, priority 2001, published 2002)

Molecular target: T1, micrococcal nuclease (Staphylococcus aureus, UniProt P00644)
T1 construct: purchased Sigma N5386
Experiment: inactivation of micrococcal nuclease by EGTA, read out in the real time T7 DNA amplification reaction
Assay type: biochemical
Settings: 2 mM EGTA added after incubation with 1 mM CaCl2
Text: Micrococcal nuclease is obtained from Sigma (Sigma catalog number N5386 from Staphylococcus aureus, Foggi strain; 100-300 units/mg). EGTA, Ethylene glycol-bis(2-aminoethyl ether)-N,N,N′,N′-tetraacetic acid, is used as the micrococcal inactivating-agent and is obtained from Sigma (Sigma catalog number E8145. Tetrasodium salt). […]
DNA was quantitated by its ability to stimulate a real time DNA amplification reaction based on the T7 replication system, as described in PCT number WO 00/41524, published Jul. […] In this assay, the time required for the synthesized DNA to reach a designated threshold fluorescence value is proportional to the log of the input concentration of DNA over more than a 10,000,000-fold range of DNA concentration.

Q: With `O=C(O)CN(CCOCCOCCN(CC(=O)O)CC(=O)O)CC(=O)O` [EGTA, Ethylene glycol-bis(2-aminoethyl ether)-N,N,N′,N′-tetraacetic acid] as the compound, how does the “effect of EGTA on micrococcal nuclease activity” value read?
A: inactivated
